Laboratory results as given in paper PMC12607897, “Inhibition of HIV-1 replication by primer RNA packaging inhibitors” (mBio, 2025).
Like-named read-outs stand apart in the source and are kept apart here.

Columns and labels:
[1] = biological target: T1, mLysRS:IN interaction (human mLysRS, HIV-1 IN) (UniProt P12497+Q15046); assay: HTRF assay of mLysRS:IN interaction; assay type: binding, human / HIV-1; details: for effect on the mLysRS:IN interaction in the HTRF assay: dihydropyridine derivatives, Fig. S2
T1 construct: made in house
T1 sequence (Q15046 other isoform, or with tags, fused parts or gaps, other chains not shown): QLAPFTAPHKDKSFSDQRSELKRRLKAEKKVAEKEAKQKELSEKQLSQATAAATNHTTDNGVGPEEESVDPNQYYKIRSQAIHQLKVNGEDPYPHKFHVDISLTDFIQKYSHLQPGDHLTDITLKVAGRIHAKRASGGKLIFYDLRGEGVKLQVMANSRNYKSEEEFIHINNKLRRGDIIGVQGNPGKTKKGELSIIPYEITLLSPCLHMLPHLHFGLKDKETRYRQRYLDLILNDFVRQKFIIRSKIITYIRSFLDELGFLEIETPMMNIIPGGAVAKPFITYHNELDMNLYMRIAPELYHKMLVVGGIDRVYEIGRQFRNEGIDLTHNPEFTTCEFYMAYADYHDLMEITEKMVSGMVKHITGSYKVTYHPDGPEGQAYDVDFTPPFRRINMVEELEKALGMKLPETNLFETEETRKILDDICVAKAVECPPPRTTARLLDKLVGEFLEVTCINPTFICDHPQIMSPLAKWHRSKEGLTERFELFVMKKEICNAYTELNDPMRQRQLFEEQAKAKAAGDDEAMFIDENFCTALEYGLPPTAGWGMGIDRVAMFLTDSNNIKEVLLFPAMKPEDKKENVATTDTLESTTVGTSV
Procedure: Fig 1 Determination of the half-maximal inhibitory concentration (IC50) of the drugs in the mLysRS:IN binding assay. The binding of mLysRS to IN (red) or p38 (blue) was monitored in the HTRF assay in the presence of increasing drug concentrations (9–1,000 µM). The experimental values (symbols) were fitted (curves) to the equation Y = Ymin + {(Ymax − Ymin)/[1 + (X/IC50)^n]}, where n is the Hill coefficient. […] Proteins were isolated as described previously ([4]). Several batches of IN were used throughout this study. […] The molecules are dissolved in DMSO at a final concentration of 10 mM. After a 1 h incubation on ice, antibodies (Cisbio) directed to the His-tag and conjugated with Eu^3+ cryptate (Cisbio #61HISKLB) and the HA-tag conjugated with XL665 (Cisbio #610HAXLB) were added, and incubation was continued for 30 min. After the addition of 50 mM KF, fluorescence of Eu^3+ cryptate and of XL665 was recorded at 620 nm (I620) and 665 nm (I665), respectively, following excitation of Eu^3+ cryptate at 317 nm, in an Infinite M1000 PRO microplate reader (TECAN). The results were expressed as the ratio of I665/I620.

[2] = test system: HIV-1 NLENG1-IRES-GFP (NL4-3-GFP) virus in MT4 cells; assay: ex vivo HIV-1 replication assay, GFP expression by flow cytometry in infected MT4 cells (multiple cycles); assay type: cell-based; details: for GFP fluorescence, % of the value observed when DMSO was added alone: drug 10 µM, added 36–48 h after infection, read 72 h later
Procedure: To test this hypothesis, azelastine, lacidipine, and cilnidipine were used in an ex vivo assay to determine their effect on HIV-1 proliferation. MT4 cells were infected with NLENG1-IRES-GFP, a virus that allows for multiple cycles of infection, and the molecules were added to the medium 36–48 h after infection, before the completion of the first round of viral infection; 72 h after the drugs were added, when two rounds of HIV-1 infection were underway, the level of GFP fluorescence was determined by flow cytometry, as a marker of HIV-1 infection (Fig. 3, left panel). HIV-1 replication was inhibited in a dose-dependent manner. […]. […] At the same time, no drug toxicity was observed, as determined by the MTT assay (Fig. 3, right panel). […] The selectivity index (SI) ([24]) of the three drugs, defined as the ratio of 50% cytotoxic concentration (CC50; >20 µM) to 50% inhibitory concentration (IC50; ~5 µM), >4.
(§1) Fig 3 Effect of the inhibitors on HIV-1 replication and cell toxicity. MT4 cells were infected with NL4-3-GFP virus. Two days after infection, inhibitors were added to the culture medium at final concentrations of 1, 3.3, or 10 µM. The final concentration of DMSO was 0.1%. Five days after infection, GFP expression was quantified by flow cytometry, and cell viability was determined by the MTT assay. NInf corresponds to non-infected cells. Six independent experiments were performed, and standard deviations are shown. A Student t-test was used to determine statistical significance compared with the control experiment with DMSO (*: P < 0.001; **: P < 0.0001).
MT4 cell line ([26]) was maintained in RPMI 1640. HEK293T and HeLa-P4 cells ([27]) were maintained in Dulbecco’s modified Eagle medium (DMEM). All media were supplemented with Glutamax and with 10% heat-inactivated fetal calf serum (Hyclone) and 1% penicillin/streptomycin (100 units/mL) (Gibco). All media were purchased from Gibco (Life Technologies Co.). All cell lines used here were incubated at 37 °C, under 5% CO2 atmosphere. HIV-1 stocks were prepared by calcium phosphate-mediated transfection of HEK293T cells, as previously described ([22]), with shuttle vector plasmids encoding HIV-1 NL4-3 (GenBank: AF324493.1) or NLENG1-IRES-GFP ([28]). The latter vector comes from the HIV NL4-3 strain and contains a gfp-IRES-nef cassette at the nef locus. […].
For NL4-3-GFP vectors, viral infection is followed by GFP expression (i.e., the percentage and geometric mean fluorescence intensity [MFI] of GFP^+ cells). Infectivity was estimated by flow cytometry using a FACS Celesta flow cytometer (BD Biosciences). Toxicity is also assessed by flow cytometry (side and forward scatter).

mLysRS = mLysRS (Homo sapiens, UniProt Q15046); assay: tRNA aminoacylation assay; assay type: biochemical; details: drug added up to 1 mM
Chain of mLysRS (Q15046 31-625 isoform Q15046-2): as the sequence (Q15046 other isoform, or with tags, fused parts or gaps, other chains not shown) above
Procedure: Initial rates of tRNA aminoacylation were measured at 25°C in 0.1 mL of 20 mM Imidazole-HCl buffer (pH 7.5), 100 mM KCl, 0.5 mM DTT, 12 mM MgCl2, 2 mM ATP, 180 µM ^14C-labeled lysine (NEN; 16.66 Ci/mol), and saturating amounts of global yeast tRNA ([30]). The incubation mixture contained catalytic amounts (2 nM) of mLysRS appropriately diluted in 10 mM Tris-HCl (pH 7.5), 10 mM 2-mercaptoethanol, containing bovine serum albumin at 4 mg/mL. Inhibitors were added at final concentrations ranging from 3.9 to 1,000 µM. One unit of activity is the amount of enzyme producing 1 nmol of lysine-tRNA^Lys/min, at 25°C.
Fig. S5. Effect of inhibitors on mLysRS activity. The tRNA-aminoacylation activity of mLysRS
was determined in the presence of increasing concentrations of the drugs. Two independent
experiments were performed and standard deviations are shown.
Fig. 6. Raw data of quantification of minus-strand strong stop viral DNA and viral RNA by
digital PCR from viruses recovered after 72 h incubation in the presence of 10 µM of the drugs.

[3] = test system: HIV-1 NL4-3 virus particles; assay: digital PCR / RT-dPCR of minus-strand strong stop cDNA and viral RNA in particles; assay type: cell-based; details: 10 µM drug, 72 and 96 h after infection
Source text: We used digital RT-PCR and digital PCR to determine the viral mRNA and minus-strand strong stop viral cDNA content of the particles (Fig. 7; Fig. S6). The amount of early viral cDNA produced in the HIV-1 particles is a measure of the efficiency of the initiation step of reverse transcription, which requires the packaging of tRNA3^Lys at the budding step, the primer for cDNA synthesis.
Fig 7 Effect of drugs on viral synthesis of minus-strand strong stop cDNA. Viruses were harvested from the culture medium after 72 (red) or 96 h (blue) of infection of MT4 cells with NL4-3 viruses. Minus-strand strong stop viral DNA and viral RNA (vRNA) were quantified by digital PCR and RT-dPCR, respectively. Viruses were harvested from cultures grown in the presence of 10 µM of azelastine (Aze), lacidipine (Lac), or cilnidipine (Cil), or H2O or DMSO as controls. Values and the associated standard deviations (n = 3) are expressed as the ratios of the values obtained for the H2O or DMSO controls. […].
MT4 cells (2 × 10^6 cells) were infected with the NL4-3 viruses. After 4–5 h of infection at 37°C, cells were twice washed with PBS, incubated 5 min at 37°C in 0.25% trypsin-EDTA solution (Gibco) to eliminate viruses remaining in the medium, incubated 5 min at 37°C in complete RPMI medium, twice washed with PBS, resuspended in RPMI medium at a cell density of 200 × 10^3 cells/mL and incubated with 10 µM of azelastine (25 mM stock solution in H20), or lacidipine and cilnidipine (25 mM stock solution in DMSO). A second aliquot of the inhibitors was added to the culture medium 48 h after infection. […] All RNA and DNA quantifications were performed by digital PCR and RT-qPCR on a QIAcuity instrument (QIAGEN) using 26K 24-well nanoplates and the QIAcuity Probe PCR and One-Step Viral RT-PCR kits. Primers and probes were 5′-[…], 5′-[…], and 5′-[…] for the quantification of minus-strand strong-stop cDNA, and 5′-[…], 5′-[…], and 5′-[…] CGT for viral RNA quantification.

MT4 cells = assay: cell toxicity by MTT assay; assay type: cell-based, human; details: MTT assay, 1, 3.3 or 10 µM
Procedure: as §1
Replication of the NL4-3 virus was determined either by the ELISA technique or in HeLa-P4 cells by the CPRG method as described previously ([29]). These are HeLa CD4 LTR-lacZ cells in which the expression of lacZ is induced by the HIV transactivator Tat, allowing precise quantification of the infectivity of HIV-1. The viral titer was determined by quantifying β-galactosidase activity in HeLa-P4 lysates in a colorimetric assay based on the cleavage of chlorophenol red-β-D-galactopyranoside (CPRG) by β-galactosidase. The cytotoxicity is evaluated by the MTT assay.

[4] = HTRF, mLysRS 1.5 nM dimer, IN 25 nM dimer, read-out: half-maximal inhibitory concentration (IC50) in the mLysRS:IN assay

Work on `COC(=O)C1=C(C)NC(C)=C(C(=O)OC(C)C)C1c1cccc2nonc12` (centres unmarked) [isradipine] yielded an IC50 [1] of over 500 µM.
For `CCOC(=O)C1=C(COCCN)NC(C)=C(C(=O)OC)[C@@H]1c1ccccc1Cl` [levamlodipine], the “effect on the mLysRS:IN interaction in the HTRF assay” value (“effect on the mLysRS:IN interaction” below) [1] was “did not significantly alter”.
For `CCOC(=O)C1=C(C)NC(C)=C(C(=O)OC)C1c1cccc(Cl)c1Cl` (centres unmarked) [felodipine], the “effect on the mLysRS:IN interaction” value [1] was “did not significantly alter”.
`CCOC(=O)C1=C(C)NC(C)=C(C(=O)OCC)C1c1ccccc1/C=C/C(=O)OC(C)(C)C` [lacidipine] was tested, and the IC50 [1, 4] was 64 ± 8 µM, the “GFP fluorescence, % of the value observed when DMSO was added alone” value [2] was 27.2% and the “inhibition of Lysyl-tRNA^Lys synthesis” value (mLysRS) was 30%. The “minus-strand strong stop cDNA in viruses, normalized to viral RNA” value [3] was “significantly reduced”.
For `CC1=C(C(=O)OC(C)C)C(c2cccc([N+](=O)[O-])c2)C(C(=O)OC2CN(C(c3ccccc3)c3ccccc3)C2)=C(N)N1` (centres unmarked) [azelnidipine], the “cell toxicity” value (MT4 cells) was “higher cellular toxicity”.
For `COC(=O)C1=C(C)NC(C)=C(C(=O)OC(C)(C)CN(C)CCC(c2ccccc2)c2ccccc2)C1c1cccc([N+](=O)[O-])c1` (centres unmarked) [Lercanidipine], the “cell toxicity” value (MT4 cells) was “higher cellular toxicity”.
With `CCCC(=O)OCOC(=O)C1=C(C)NC(C)=C(C(=O)OC)C1c1cccc(Cl)c1Cl` (centres unmarked) [celvidipine] the “effect on the mLysRS:IN interaction” value [1] was “did not significantly alter”.
`COC(=O)C1=C(C)NC(C)=C(C(=O)OCCN(C)Cc2ccccc2)C1c1cccc([N+](=O)[O-])c1` (centres unmarked) [nicardipine] gave an IC50 [1] of over 500 µM.
In the case of `CCOC(=O)C1=C(C)NC(C)=C(C(=O)OC)C1c1cccc([N+](=O)[O-])c1` (centres unmarked) [nitrendipine], the IC50 [1] is reported as over 500 µM.
In the case of `COCCOC(=O)C1=C(C)NC(C)=C(C(=O)OC(C)C)C1c1cccc([N+](=O)[O-])c1` (centres unmarked) [nimodipine], the “effect on the mLysRS:IN interaction” value [1] is reported as “did not significantly alter”.
For `COC(=O)C1=C(C)NC(C)=C(C(=O)OCC(C)C)C1c1ccccc1[N+](=O)[O-]` (centres unmarked) [nisoldipine], the “inhibition of HIV-1 replication in the ex vivo assay” value ([2]; NL4-3-GFP, Fig. S3) was “did not inhibit”.
`COC(=O)C1=C(C#N)NC(C)=C(C(=O)OC(C)C)C1c1cccc([N+](=O)[O-])c1` (centres unmarked) [nivaldipine] was tested, and the IC50 [1, 4] was over 500 µM.
With `CCOC(=O)C1=C(C)NC(C)=C(C(=O)OCC)C1` [Diludine] the “effect on the mLysRS:IN interaction” value [1] was “did not significantly alter”.
For `COCCOC(=O)C1=C(C)NC(C)=C(C(=O)OC/C=C/c2ccccc2)C1c1cccc([N+](=O)[O-])c1` (centres unmarked) [cilnidipine], the IC50 [1, 4] was 310 ± 30 µM, the “GFP fluorescence, % of the value observed when DMSO was added alone” value [2] was 18.9% and the “inhibition of Lysyl-tRNA^Lys synthesis” value (mLysRS) was “did not inhibit”. The “minus-strand strong stop cDNA in viruses, normalized to viral RNA” value [3] was “significantly reduced”.
